The text below walks through data of PMC5116814, “Potent, Reversible, and Specific Chemical Inhibitors of Eukaryotic Ribosome Biogenesis” (Cell, 2016).

Common to all, as to format: biochemical
The target in test [1] is T1, Mdn1 (Midasin) (Schizosaccharomyces pombe, UniProt O94248).
T1 construct: recombinant full-length Mdn1 (hexahistidine-tagged, insect cells)
The test can be described thus: NADH-coupled steady-state ATPase assay, dose-response (saturates at […] inhibition).

Test [2] deals with T1, Mdn1 (Midasin). The test can be described thus: NADH-coupled and radioactive ATPase assays.
Test [3] concerns the target T1, Mdn1 (Midasin). The test can be described thus: ATP hydrolysis by purified enzyme (radioactive and NADH-coupled ATPase assays).

T1 sequence (O94248 whole entry): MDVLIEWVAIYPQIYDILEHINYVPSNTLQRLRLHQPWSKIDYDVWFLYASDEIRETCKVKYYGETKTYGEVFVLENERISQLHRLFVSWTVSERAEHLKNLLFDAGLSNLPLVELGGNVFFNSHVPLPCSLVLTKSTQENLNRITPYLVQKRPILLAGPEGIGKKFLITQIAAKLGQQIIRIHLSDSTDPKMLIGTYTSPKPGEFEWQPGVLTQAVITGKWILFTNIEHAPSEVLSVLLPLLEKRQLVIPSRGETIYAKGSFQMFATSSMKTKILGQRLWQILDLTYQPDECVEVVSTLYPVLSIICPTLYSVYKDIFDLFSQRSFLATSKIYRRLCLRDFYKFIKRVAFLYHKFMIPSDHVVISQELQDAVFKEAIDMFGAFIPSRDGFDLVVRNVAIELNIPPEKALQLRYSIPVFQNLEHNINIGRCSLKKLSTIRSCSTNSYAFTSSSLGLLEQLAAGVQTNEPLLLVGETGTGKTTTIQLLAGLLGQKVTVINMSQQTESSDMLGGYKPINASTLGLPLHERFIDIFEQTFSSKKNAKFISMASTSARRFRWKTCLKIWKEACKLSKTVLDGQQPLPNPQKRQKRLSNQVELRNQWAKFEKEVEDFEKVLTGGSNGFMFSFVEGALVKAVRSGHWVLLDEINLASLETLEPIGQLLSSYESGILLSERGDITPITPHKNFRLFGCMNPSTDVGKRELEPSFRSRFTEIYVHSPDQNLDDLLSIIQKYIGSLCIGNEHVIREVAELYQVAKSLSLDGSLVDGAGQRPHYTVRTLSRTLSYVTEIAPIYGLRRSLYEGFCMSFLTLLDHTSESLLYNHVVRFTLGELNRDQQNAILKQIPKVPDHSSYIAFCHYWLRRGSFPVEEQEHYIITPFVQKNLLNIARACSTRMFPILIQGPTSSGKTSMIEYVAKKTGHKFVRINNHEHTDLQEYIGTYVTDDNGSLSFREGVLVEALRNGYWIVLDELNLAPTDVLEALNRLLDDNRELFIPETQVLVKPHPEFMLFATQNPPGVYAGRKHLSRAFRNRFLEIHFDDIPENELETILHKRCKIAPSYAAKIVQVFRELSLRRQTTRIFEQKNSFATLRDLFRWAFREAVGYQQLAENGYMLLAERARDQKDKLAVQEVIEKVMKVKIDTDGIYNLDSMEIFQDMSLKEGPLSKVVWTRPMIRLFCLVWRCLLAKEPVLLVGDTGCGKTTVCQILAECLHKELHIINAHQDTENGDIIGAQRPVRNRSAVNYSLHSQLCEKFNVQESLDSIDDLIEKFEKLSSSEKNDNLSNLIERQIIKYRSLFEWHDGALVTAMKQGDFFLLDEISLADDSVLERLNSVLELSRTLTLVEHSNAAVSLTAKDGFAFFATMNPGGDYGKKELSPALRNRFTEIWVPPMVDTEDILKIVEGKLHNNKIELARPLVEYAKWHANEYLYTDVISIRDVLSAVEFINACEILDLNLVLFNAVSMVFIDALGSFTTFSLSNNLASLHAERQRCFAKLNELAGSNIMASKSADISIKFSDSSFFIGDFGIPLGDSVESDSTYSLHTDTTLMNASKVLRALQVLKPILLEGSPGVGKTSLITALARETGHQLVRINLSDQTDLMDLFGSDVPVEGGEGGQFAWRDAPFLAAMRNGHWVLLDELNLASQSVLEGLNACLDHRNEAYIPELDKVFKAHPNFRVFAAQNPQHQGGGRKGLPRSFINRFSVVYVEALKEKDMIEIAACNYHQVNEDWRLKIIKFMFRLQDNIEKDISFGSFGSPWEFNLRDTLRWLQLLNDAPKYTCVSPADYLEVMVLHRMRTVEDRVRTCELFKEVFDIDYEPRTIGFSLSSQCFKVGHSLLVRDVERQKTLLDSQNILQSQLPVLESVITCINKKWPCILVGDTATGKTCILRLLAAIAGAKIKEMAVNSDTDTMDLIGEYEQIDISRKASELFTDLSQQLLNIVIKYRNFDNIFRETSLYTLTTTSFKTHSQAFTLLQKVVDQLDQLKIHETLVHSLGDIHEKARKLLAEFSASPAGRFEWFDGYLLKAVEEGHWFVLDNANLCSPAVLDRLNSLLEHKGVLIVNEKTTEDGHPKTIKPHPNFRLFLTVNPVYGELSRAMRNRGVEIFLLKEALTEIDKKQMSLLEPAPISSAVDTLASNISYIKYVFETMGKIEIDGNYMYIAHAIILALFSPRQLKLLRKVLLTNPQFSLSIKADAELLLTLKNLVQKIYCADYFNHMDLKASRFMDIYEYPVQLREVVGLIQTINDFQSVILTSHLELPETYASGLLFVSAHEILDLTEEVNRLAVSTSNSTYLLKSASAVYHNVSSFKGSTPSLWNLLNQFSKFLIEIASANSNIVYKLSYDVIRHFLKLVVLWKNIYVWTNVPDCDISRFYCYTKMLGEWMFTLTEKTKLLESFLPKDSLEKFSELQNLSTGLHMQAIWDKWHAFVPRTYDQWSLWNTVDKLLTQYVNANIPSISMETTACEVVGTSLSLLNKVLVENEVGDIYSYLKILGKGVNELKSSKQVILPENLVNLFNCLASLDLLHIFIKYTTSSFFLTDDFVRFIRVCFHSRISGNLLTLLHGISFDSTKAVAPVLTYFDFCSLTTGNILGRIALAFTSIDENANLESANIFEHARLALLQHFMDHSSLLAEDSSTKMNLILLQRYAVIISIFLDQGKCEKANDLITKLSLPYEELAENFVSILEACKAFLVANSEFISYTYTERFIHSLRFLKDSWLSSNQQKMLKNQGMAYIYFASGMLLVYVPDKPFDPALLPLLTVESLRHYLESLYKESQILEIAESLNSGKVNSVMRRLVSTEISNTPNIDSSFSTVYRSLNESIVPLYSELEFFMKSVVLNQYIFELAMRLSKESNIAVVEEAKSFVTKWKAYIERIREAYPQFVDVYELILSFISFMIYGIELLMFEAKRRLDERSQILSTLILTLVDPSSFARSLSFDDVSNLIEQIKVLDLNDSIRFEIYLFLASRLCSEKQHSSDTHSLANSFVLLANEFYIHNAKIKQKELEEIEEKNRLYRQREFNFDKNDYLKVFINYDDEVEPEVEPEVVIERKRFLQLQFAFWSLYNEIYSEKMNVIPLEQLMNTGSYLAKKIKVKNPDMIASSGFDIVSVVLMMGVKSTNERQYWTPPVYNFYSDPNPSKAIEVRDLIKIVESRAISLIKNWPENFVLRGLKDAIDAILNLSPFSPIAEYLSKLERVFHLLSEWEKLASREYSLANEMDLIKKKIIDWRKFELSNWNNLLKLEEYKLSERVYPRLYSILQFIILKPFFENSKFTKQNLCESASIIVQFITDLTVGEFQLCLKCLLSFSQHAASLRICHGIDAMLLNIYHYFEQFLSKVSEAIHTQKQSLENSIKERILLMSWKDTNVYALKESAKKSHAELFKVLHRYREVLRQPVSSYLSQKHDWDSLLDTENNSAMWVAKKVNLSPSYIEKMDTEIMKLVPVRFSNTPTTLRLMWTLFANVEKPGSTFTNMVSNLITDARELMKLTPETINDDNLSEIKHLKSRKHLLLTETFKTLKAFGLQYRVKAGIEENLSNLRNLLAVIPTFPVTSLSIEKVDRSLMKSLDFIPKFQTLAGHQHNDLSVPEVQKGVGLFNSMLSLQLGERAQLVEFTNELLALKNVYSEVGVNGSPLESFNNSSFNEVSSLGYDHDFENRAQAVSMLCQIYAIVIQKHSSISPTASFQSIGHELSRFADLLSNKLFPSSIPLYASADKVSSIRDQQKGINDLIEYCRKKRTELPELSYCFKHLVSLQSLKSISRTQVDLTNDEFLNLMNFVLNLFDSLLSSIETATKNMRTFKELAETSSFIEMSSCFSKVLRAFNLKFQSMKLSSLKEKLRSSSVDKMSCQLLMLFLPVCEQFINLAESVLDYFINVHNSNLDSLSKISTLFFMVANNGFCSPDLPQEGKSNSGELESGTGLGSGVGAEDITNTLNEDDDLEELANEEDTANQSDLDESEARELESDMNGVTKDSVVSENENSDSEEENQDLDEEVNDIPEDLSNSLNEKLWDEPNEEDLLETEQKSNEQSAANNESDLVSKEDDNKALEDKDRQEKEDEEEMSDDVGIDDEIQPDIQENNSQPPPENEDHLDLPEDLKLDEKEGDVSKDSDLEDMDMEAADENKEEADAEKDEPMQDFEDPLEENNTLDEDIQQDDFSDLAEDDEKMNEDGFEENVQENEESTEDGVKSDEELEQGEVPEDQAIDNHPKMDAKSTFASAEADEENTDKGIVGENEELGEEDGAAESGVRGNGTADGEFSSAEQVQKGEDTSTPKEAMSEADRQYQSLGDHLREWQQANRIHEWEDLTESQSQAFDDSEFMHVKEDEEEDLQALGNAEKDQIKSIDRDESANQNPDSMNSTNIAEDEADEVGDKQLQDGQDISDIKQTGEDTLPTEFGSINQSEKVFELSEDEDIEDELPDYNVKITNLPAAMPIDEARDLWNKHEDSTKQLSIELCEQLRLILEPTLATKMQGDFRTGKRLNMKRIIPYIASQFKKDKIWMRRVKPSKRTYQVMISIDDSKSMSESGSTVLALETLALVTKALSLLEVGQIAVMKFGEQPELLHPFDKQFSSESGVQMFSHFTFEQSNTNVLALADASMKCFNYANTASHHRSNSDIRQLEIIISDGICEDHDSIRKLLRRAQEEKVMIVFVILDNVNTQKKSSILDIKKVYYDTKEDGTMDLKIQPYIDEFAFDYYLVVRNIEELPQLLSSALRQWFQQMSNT

The term EC50 denotes the midpoint of the concentration-response curve. Read a high EC50 as a need for much substance. `C=C(C)CSc1nnc2c(n1)[nH]c1cc(Br)ccc12` [compound 15, Rbin-2]: the EC50 at Mdn1 (Midasin) [1] is approximately 300 nM.

Usually inhibition stands for how much of the control response was suppressed. In the case of `C=C(C)CSc1nnc2c(n1)[nH]c1ccccc12` [compound 1, Rbin-1], the inhibition at 1 µM at Mdn1 (Midasin) [2] is approximately 40%.

For `Nc1ncnc2c1ncn2[C@@H]1O[C@H](COP(=O)(O)OP(=O)(O)OP(=O)(O)O)[C@@H](O)[C@H]1O` [ATP], the “ATP hydrolysis by purified enzyme (radioactive and NADH-coupled ATPase assays)” value at Mdn1 (Midasin) [3] is recorded as ~ 1.0 s^–1 (specific activity at 1 mM MgATP).
